# Reference: patent publication US11162944B2, “Compositions and methods” (priority 2015, dated 2021)
# Like-named read-outs stand apart in the source and are kept apart here. Marks after values point to notes of the source that are not given here.
# System: biomarker (antibody) in serum samples from patients with symptoms of tuberculosis
# Type: binding, human
smiles,measurement,setting,value
CCCCCCCCCCCCCCCCCCCCCCCC[C@@H](C(=O)OC[C@H]1O[C@H](OC)[C@@H](O)[C@@H]1O)[C@H](O)CCCCCCCCCCC[C@H]1CC1CCCCCCCCCCCCCC[C@H]1C[C@H]1CCCCCCCCCCCCCCCCCCCC (stereo partly shown) [Antigen F],ELISA absorbance at 492 nm,serum sample 1 TB+,0.74*
same,ELISA absorbance at 492 nm,serum sample 2 TB+,0.76*
same,ELISA absorbance at 492 nm,serum sample 3 TB+,0.99*
same,ELISA absorbance at 492 nm,serum sample 4 TB+,0.97*
same,ELISA absorbance at 492 nm,serum sample 5 TB+,0.99*
same,ELISA absorbance at 492 nm,serum sample 6 TB+,1.39*
same,ELISA absorbance at 492 nm,serum sample 7 TB+,1.97*
same,ELISA absorbance at 492 nm,serum sample 8 TB+,1.67*
same,ELISA absorbance at 492 nm,serum sample 9 TB+,1.09*
same,ELISA absorbance at 492 nm,serum sample 10 TB−,0.59
same,ELISA absorbance at 492 nm,serum sample 11 TB−,0.92*
same,ELISA absorbance at 492 nm,serum sample 12 TB−,0.84*
same,ELISA absorbance at 492 nm,serum sample 13 TB−,0.60
same,ELISA absorbance at 492 nm,serum sample 14 TB−,1.30*
same,ELISA absorbance at 492 nm,serum sample 15 TB−,0.64
same,ELISA absorbance at 492 nm,serum sample 16 TB−,0.56
same,ELISA absorbance at 492 nm,serum sample 17 TB−,0.81*
same,ELISA absorbance at 492 nm,serum sample 18 TB−,0.68
same,ELISA absorbance at 492 nm,serum sample 19 TB−,0.71*
same,ELISA absorbance at 492 nm,serum sample 20 TB−,1.03*
same,ELISA absorbance at 492 nm,serum sample 21 TB−,0.61
same,ELISA absorbance at 492 nm,serum sample 22 TB−,0.66
same,ELISA absorbance at 492 nm,serum sample 23 TB−,0.81*
same,ELISA absorbance at 492 nm,serum sample 24 TB−,0.62
same,ELISA absorbance at 492 nm,serum sample 25 TB−,0.21
same,ELISA absorbance at 492 nm,serum sample 26 TB−,0.72
same,ELISA absorbance at 492 nm,serum sample 27 TB−,0.61
same,ELISA absorbance at 492 nm,serum sample 28 TB−,0.38
same,ELISA absorbance at 492 nm,serum sample 29 TB−,0.41
same,ELISA absorbance at 492 nm,serum sample 30 TB−,0.39
same,ELISA absorbance at 492 nm,serum sample 31 TB−,0.51
same,ELISA absorbance at 492 nm,serum sample 32 TB−,0.91*
same,ELISA absorbance at 492 nm,serum sample 33 TB−,0.42
same,ELISA absorbance at 492 nm,serum sample 34 TB−,0.49
same,ELISA absorbance at 492 nm,serum sample 35 TB−,0.38
same,ELISA absorbance at 492 nm,serum sample 36 TB−,0.28
same,ELISA absorbance at 492 nm,serum sample 37 TB−,0.55
same,ELISA absorbance at 492 nm,serum sample 38 TB−,0.52
same,ELISA absorbance at 492 nm,serum sample 39 TB−,0.35
same,ELISA absorbance at 492 nm,serum sample 40 TB−,0.35
same,ELISA absorbance at 492 nm,serum sample 41 TB−,0.66
same,ELISA absorbance at 492 nm,serum sample 42 TB−,0.55
same,ELISA absorbance at 492 nm,serum sample 43 TB−,0.30
same,ELISA absorbance at 492 nm,serum sample 44 TB−,0.98*
same,ELISA absorbance at 492 nm,serum sample 45 TB−,0.43
same,ELISA absorbance at 492 nm,serum sample 46 TB−,0.31
same,ELISA absorbance at 492 nm,serum sample 47 TB−,0.56
same,ELISA absorbance at 492 nm,serum sample 48 TB−,0.32
same,ELISA absorbance at 492 nm,serum sample 49 TB−,0.51
same,ELISA absorbance at 492 nm,serum sample 50 TB−,0.37
same,ELISA absorbance at 492 nm,serum sample 51 TB−,0.21
same,ELISA absorbance at 492 nm,serum sample 52 TB−,0.36
same,ELISA absorbance at 492 nm,serum sample 53 TB−,0.26
same,ELISA absorbance at 492 nm,serum sample 54 TB−,0.27
same,ELISA absorbance at 492 nm,serum sample 55 TB−,0.27
same,ELISA absorbance at 492 nm,serum sample 56 TB−,0.73*
same,ELISA absorbance at 492 nm,serum sample 57 TB−,0.37
same,ELISA absorbance at 492 nm,serum sample 58 TB−,0.41
same,ELISA absorbance at 492 nm,serum sample 59 TB−,0.45
same,ELISA absorbance at 492 nm,serum sample 60 TB−,0.44
same,ELISA absorbance at 492 nm,serum sample 61 TB−,0.41
same,ELISA absorbance at 492 nm,serum sample 62 TB−,0.30
same,ELISA absorbance at 492 nm,serum sample 63 TB−,0.25
same,ELISA absorbance at 492 nm,serum sample 64 TB−,0.29
